Laboratory results taken from US20250171426A1, “PYRIMIDINEDIONE-BASED COMPOUNDS AS AXL, C-MET, AND MER INHIBITORS AND METHODS OF USE THEREOF” (CMG Pharmaceutical Co., Ltd., priority 2022, published 2025).

How the values were obtained:
Assay type in all cases: biochemical
Details in all cases: 10 μM ATP, 60 min, ADP-GLO luminescence
c-MET = c-MET (Homo sapiens, UniProt P08581); experiment: Enzymatic assay (ADP-Glo kinase reaction), c-MET
Procedure: (§1) All the kinase reactions were performed in 5 μL using tyrosine kinase buffer with 0.2 μg/μL poly (Glu4, Tyr1) substrate, 10 μM ATP, serial dilution of the inhibitor, and incubated at room temperature for 60 min. After the indicated incubation times, 5 μL ADP-GLO™ reagent (Promega, Madison, WI) was added to the reactions and the plate was incubated at room temperature for 40 min. […] All 384-well assay plates were read using a GLOMAX™ Discover Microplate Luminometer from Promega (Madison, WI). To plot, analyze the data and calculate all kinase reaction biochemical values, both Microsoft Excel and Prism from GraphPad 7 Software (La Jolla, CA) were used.

AXL = target: T1, AXL (Homo sapiens, UniProt P30530); experiment: Enzymatic assay (ADP-Glo kinase reaction), AXL
T1 sequence (P30530 26-894): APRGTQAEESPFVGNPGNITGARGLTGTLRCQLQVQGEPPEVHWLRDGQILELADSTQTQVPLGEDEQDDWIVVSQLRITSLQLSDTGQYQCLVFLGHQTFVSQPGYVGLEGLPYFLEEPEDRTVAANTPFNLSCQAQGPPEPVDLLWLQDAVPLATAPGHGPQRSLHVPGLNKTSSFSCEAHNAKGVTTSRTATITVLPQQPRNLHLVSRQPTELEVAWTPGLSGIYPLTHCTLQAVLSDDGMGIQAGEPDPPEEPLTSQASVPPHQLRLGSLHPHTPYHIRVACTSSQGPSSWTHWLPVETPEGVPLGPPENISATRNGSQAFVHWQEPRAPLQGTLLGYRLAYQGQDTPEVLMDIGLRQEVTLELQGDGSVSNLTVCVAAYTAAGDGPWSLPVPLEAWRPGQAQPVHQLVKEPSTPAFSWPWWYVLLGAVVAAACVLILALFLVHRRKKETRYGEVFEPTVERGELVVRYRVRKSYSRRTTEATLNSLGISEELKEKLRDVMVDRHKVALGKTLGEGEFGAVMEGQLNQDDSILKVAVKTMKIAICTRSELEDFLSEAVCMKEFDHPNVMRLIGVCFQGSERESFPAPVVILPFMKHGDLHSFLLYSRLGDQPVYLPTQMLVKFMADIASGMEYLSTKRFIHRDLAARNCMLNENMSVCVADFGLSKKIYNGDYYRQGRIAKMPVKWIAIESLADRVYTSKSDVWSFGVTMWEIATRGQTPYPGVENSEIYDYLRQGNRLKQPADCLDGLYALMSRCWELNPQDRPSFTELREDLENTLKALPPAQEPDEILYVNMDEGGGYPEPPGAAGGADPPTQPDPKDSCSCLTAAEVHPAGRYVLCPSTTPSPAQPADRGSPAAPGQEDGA
Procedure: as §1

MER = target: T2, MER (Homo sapiens, UniProt Q12866); experiment: Enzymatic assay (ADP-Glo kinase reaction), MER
T2 sequence (Q12866 21-999): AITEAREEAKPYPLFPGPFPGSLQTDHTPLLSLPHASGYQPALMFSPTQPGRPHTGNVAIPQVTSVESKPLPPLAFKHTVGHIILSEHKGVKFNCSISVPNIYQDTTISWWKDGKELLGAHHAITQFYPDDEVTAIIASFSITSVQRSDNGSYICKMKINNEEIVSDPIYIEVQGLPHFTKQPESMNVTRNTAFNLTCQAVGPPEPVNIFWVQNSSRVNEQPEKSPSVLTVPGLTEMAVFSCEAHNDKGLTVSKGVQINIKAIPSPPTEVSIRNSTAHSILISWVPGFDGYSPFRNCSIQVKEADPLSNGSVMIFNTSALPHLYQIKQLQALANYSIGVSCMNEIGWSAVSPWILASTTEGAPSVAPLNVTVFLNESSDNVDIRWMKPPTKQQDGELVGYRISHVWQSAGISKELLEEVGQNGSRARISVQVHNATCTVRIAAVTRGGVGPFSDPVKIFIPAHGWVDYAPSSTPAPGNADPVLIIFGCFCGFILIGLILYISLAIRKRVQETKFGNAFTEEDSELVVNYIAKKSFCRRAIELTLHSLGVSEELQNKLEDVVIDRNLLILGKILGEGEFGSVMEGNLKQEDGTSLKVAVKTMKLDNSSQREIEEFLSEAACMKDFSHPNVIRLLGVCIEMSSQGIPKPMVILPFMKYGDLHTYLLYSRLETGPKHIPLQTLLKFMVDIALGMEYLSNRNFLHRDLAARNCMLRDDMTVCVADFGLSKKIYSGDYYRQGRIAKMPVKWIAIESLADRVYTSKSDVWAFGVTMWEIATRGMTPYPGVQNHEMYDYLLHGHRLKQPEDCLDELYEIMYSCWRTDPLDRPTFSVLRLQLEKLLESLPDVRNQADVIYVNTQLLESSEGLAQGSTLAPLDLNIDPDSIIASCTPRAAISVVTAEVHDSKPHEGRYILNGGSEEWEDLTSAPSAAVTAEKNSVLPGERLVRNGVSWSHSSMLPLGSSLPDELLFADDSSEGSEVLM
Procedure: (§2) All the kinase reactions were performed in 5 μL using tyrosine kinase buffer with 0.2 μg/μL poly (Glu4, Tyr1) substrate, 10 μM ATP, serial dilution of the inhibitor, and incubated at room temperature for 60 min. After the indicated incubation times, 5 μL ADP-GLO™ reagent (Promega, Madison, WI) was added to the reactions and the plate was incubated at room temperature for 40 min. Then, 10 μL of kinase detection reagent was added and after an incubation time of 40 min, luminescence was recorded and IC50 values were determined (Table 1). All 384-well assay plates were read using a GLOMAX™ Discover Microplate Luminometer from Promega (Madison, WI). To plot, analyze the data and calculate all kinase reaction biochemical values, both Microsoft Excel and Prism from GraphPad 7 Software (La Jolla, CA) were used.
as §2, with “3).” for “1).”

c-MET, sequence (P08581 25-1390): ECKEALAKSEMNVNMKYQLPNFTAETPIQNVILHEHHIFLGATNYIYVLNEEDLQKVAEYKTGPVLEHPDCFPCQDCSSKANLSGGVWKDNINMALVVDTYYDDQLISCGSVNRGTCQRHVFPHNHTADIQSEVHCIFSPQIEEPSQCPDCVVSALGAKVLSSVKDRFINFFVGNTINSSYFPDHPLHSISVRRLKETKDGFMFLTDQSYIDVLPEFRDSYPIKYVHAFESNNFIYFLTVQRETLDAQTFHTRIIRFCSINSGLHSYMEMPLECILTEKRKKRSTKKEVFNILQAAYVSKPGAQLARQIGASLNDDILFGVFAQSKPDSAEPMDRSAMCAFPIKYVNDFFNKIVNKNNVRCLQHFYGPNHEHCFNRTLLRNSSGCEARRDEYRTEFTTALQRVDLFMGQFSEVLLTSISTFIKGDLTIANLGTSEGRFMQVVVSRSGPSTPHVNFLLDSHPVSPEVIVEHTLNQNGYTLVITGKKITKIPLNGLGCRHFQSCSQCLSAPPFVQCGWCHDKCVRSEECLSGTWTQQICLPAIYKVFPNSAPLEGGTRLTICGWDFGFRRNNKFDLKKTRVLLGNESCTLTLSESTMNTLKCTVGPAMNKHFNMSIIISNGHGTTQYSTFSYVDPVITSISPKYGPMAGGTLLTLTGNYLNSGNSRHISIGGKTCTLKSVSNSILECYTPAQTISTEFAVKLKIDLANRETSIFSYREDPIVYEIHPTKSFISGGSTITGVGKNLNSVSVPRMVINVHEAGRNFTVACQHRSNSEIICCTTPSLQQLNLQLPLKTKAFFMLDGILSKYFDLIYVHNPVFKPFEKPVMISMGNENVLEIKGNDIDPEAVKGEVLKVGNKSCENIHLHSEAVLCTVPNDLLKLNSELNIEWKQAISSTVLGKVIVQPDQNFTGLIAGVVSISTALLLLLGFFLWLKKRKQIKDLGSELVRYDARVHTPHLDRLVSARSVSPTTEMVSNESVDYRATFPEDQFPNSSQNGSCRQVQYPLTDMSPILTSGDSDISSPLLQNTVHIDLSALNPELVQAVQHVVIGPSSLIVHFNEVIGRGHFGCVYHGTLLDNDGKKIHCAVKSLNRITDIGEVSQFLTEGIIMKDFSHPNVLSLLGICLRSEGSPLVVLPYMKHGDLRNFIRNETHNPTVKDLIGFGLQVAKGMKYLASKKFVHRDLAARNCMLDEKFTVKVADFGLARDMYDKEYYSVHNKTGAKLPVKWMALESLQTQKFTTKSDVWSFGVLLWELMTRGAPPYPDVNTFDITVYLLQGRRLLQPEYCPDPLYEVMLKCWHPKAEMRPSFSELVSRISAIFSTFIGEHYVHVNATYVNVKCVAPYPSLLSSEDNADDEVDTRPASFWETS

Row | Structure (SMILES) | IC50 (c-MET) [nM] | IC50 (AXL) [nM] | IC50 (MER) [nM]
1 | C=CCn1cc(C(=O)Nc2ccc(Oc3ccnc(N)c3C#CC(C)(C)N3CCOCC3)c(F)c2)c(=O)n(CC=C)c1=O [Example 70, 1,3-diallyl-N-(4-(2-amino-3-(3-methyl-3-morpholinobut-1-ynyl)pyridin-4-yloxy)-3-fluorophenyl)-2,4-dioxo-1,2,3,4-tetrahydropyrimidine-5-carboxamide] | < 1000 | < 1000 | < 10
2 | CN(C)C(=O)Cn1cc(C(=O)Nc2ccc(Oc3ccnc(N)c3C#CC(C)(C)N3CCNCC3)c(F)c2)c(=O)n(-c2ccc(F)cc2)c1=O [Example 35, N-(4-((2-amino-3-(3-methyl-3-(piperazin-1-yl)but-1-yn-1-yl)pyridin-4-yl)oxy)-3-fluorophenyl)-1-(2-(dimethylamino)-2-oxoethyl)-3-(4-fluorophenyl)-2,4-dioxo-1,2,3,4-tetrahydropyrimidine-5-carboxamide] | < 10000 | < 10000 | < 100
3 | CC(C)n1cc(C(=O)Nc2ccc(Oc3ccnc(N)c3C#CC(=O)N3CCNCC3)c(F)c2)c(=O)n(-c2ccc(F)cc2)c1=O [Example 1, N-(4-(2-amino-3-(3-oxo-3-(piperazin-1-yl)prop-1-ynyl)pyridin-4-yloxy)-3-fluorophenyl)-3-(4-fluorophenyl)-1-isopropyl-2,4-dioxo-1,2,3,4-tetrahydropyrimidine-5-carboxamide] | < 10 | < 10 | < 10
4 | C=CCn1cc(C(=O)Nc2ccc(Oc3ccnc(N)c3C#CC(C)(C)N3CCN(C)CC3)c(F)c2)c(=O)n(CC=C)c1=O [Example 68, 1,3-diallyl-N-(4-(2-amino-3-(3-methyl-3-(4-methylpiperazin-1-yl)but-1-ynyl)pyridin-4-yloxy)-3-fluorophenyl)-2,4-dioxo-1,2,3,4-tetrahydropyrimidine-5-carboxamide] | < 1000 | < 1000 | < 100
5 | Cn1nc(C(=O)Nc2ccc(Oc3ccnc(N)c3C#CC(C)(C)N3CCOCC3)c(F)c2)c(=O)n(-c2ccc(F)cc2)c1=O [Example 48, N-(4-(2-amino-3-(3-methyl-3-morpholinobut-1-ynyl)pyridin-4-yloxy)-3-fluorophenyl)-4-(4-fluorophenyl)-2-methyl-3,5-dioxo-2,3,4,5-tetrahydro-1,2,4-triazine-6-carboxamide] | < 100 | < 100 | < 1000
6 | COCCN1CCN(C(C)(C)C#Cc2c(Oc3ccc(NC(=O)c4cn(C(C)C)c(=O)n(-c5ccc(F)cc5)c4=O)cc3F)ccnc2N)CC1 [Example 20, N-(4-(2-amino-3-(3-(4-(2-methoxyethyl)piperazin-1-yl)-3-methylbut-1-ynyl)pyridin-4-yloxy)-3-fluorophenyl)-3-(4-fluorophenyl)-1-isopropyl-2,4-dioxo-1,2,3,4-tetrahydropyrimidine-5-carboxamide] | < 10 | < 10 | < 10
7 | Cn1nc(C(=O)Nc2ccc(Oc3ccnc(N)c3C#CC(C)(C)N3CCNCC3)c(F)c2)c(=O)n(-c2ccc(F)cc2)c1=O [Example 47, N-(4-(2-amino-3-(3-methyl-3-(piperazin-1-yl)but-1-ynyl)pyridin-4-yloxy)-3-fluorophenyl)-4-(4-fluorophenyl)-2-methyl-3,5-dioxo-2,3,4,5-tetrahydro-1,2,4-triazine-6-carboxamide] | < 1000 | < 10 | < 100
8 | Cc1nc(Cn2cc(C(=O)Nc3ccc(Oc4ccnc(N)c4C#CC(C)(C)N4CCN(C)CC4)c(F)c3)c(=O)n(-c3ccc(F)cc3)c2=O)cs1 [Example 42, N-(4-((2-amino-3-(3-methyl-3-(4-methylpiperazin-1-yl)but-1-yn-1-yl)pyridin-4-yl)oxy)-3-fluorophenyl)-3-(4-fluorophenyl)-1-((2-methylthiazol-4-yl)methyl)-2,4-dioxo-1,2,3,4-tetrahydropyrimidine-5-carboxamide] | < 100 | < 1000 | < 100
9 | CC(C)(C#Cc1c(Oc2ccc(NC(=O)c3c[nH]c(=O)n(-c4ccc(F)cc4)c3=O)cc2F)ccnc1N)N1CCNCC1 [Example 52, N-(4-(2-amino-3-(3-methyl-3-(piperazin-1-yl)but-1-ynyl)pyridin-4-yloxy)-3-fluorophenyl)-3-(4-fluorophenyl)-2,4-dioxo-1,2,3,4-tetrahydropyrimidine-5-carboxamide] | < 1000 | < 100 | < 100
10 | COCCN1CCN(C(=O)CCc2c(Oc3ccc(NC(=O)c4cn(C(C)C)c(=O)n(-c5ccc(F)cc5)c4=O)cc3F)ccnc2N)CC1 [Example 21, N-(4-(2-amino-3-(3-(4-(2-methoxyethyl)piperazin-1-yl)-3-oxopropyl)pyridin-4-yloxy)-3-fluorophenyl)-3-(4-fluorophenyl)-1-isopropyl-2,4-dioxo-1,2,3,4-tetrahydropyrimidine-5-carboxamide] | < 10000 | < 1000 | < 1000
11 | CC(C)n1cc(C(=O)Nc2ccc(Oc3ccnc(N)c3C#CCN3CCOCC3)c(F)c2)c(=O)n(-c2ccc(F)cc2)c1=O [Example 24, N-(4-(2-amino-3-(3-morpholinoprop-1-ynyl)pyridin-4-yloxy)-3-fluorophenyl)-3-(4-fluorophenyl)-1-isopropyl-2,4-dioxo-1,2,3,4-tetrahydropyrimidine-5-carboxamide] | < 10 | < 10 | –
12 | CC(C)n1cc(C(=O)Nc2ccc(Oc3ccnc(N)c3Cl)c(F)c2)c(=O)n(-c2ccc(F)cc2)c1=O [Example 6, N-(4-(2-amino-3-chloropyridin-4-yloxy)-3-fluorophenyl)-3-(4-fluorophenyl)-1-isopropyl-2,4-dioxo-1,2,3,4-tetrahydropyrimidine-5-carboxamide] | – | – | < 100
